The results in this text go back to patent US11111259B2, “Acylsulfonamide derivatives for treating senescence-associated diseases and disorders” (Unity Biotechnology, Inc., priority 2015, dated 2021).

The target of assay [1] is BCL-xL (Homo sapiens, UniProt Q07817). The experiment in a line: BCL-binding assay (AlphaLISA competition, BAD peptide). Conditions: 6xHis BCL-xL with biotinylated BAD peptide, 24 hr incubation. On the procedure: (§1) Compounds were prepared as 400× DMSO stock solutions in a 1:4 dilution series then diluted […] in assay buffer (25 mM HEPES pH 7.5, 100 mM NaCl, 0.1% BSA, 0.005% Tween) immediately before use. Aliquots of 400 nM 6xHis-tagged BCL-xL, BCL-2, and BCL-w were thawed on ice and diluted to 0.4 (BCL-XL) or 0.8 (BCL-W and 2) nM in assay buffer. Aliquots of biotinylated BIM and BAD peptides were diluted in assay buffer to 120 and 60 nM respectively. Ten microliters of biotinylated peptide were added to wells of a 96-well PCR plate, followed by ten microliters of inhibitor, then ten microliters of BCL protein, BCL-XL with BAD and BCL-W/2 with BIM. The plates were sealed and incubated at room temperature. After 24 hr, 0.16 μg Anti-His conjugated AlphaLISA acceptor beads were added in 5 μL assay buffer. After one hour at room temperature, 0.16 μg AlphaScreen streptavidin donor beads were added in 5 μL assay buffer and plates were incubated an additional 30 min in the dark. Two 17 μL aliquots of each reaction were plated in a Perkin Elmer 384-well proxiplate, and plates were scanned for using a Perkin Elmer Enspire plate reader. Kd values were calculated in Prism Graph Pad using a one site competitive binding model and previously determined Kd values for each protein peptide pair. […]

In assay [2] the test system is IMR-90 SnC (irradiated senescent IMR90 cells). The experiment in a line: Senolysis assay (CellTiter-Glo viability). The settings on record: for EC50: Homo sapiens, IMR-90, light or radiation study, 72 h, X-ray irradiated senescent IMR90 cells, viability three days after compound addition; for SI (ratio of EC50 of non-senescent cells to EC50 of senescent cells): IMR90 non-senescent vs senescent cells. The format is cell-based, human. On the procedure:
IMR90 cells are maintained in DMEM supplemented with 10% FBS. To prepare a senescent population, cells were trypsinized, diluted to 50,000 per mL, and irradiated with 10-15 Gy of X-ray irradiation. Irradiated cells were plated at 5000 cells per well in one third of a 96-well plate and maintained for two weeks prior to the assay. Four days prior to the assay, non-senescent IMR90s were plated at 2500 per well in the second third of the plate. One day prior to the assay, 2500 non-senescent cells were plated in the final third of the plate. Compounds were prepared as a 200×DMSO dilution series then diluted to 1× in media immediately before adding to cells. Three days after compound addition, cell viability was measured using CellTiter-Glo reagent from Promega. Viability was calculated relative to a DMSO control and EC50 values are calculated in Prism GraphPad. […] The selectivity (SI) of the compounds described herein is a ratio of the EC50 of non-senescent cells to the EC50 of senescent cells. The SI of the compounds described herein is 10 or above for “A” selectivity, between 2 and 10 for “B” selectivity or 2 or less for “C” selectivity.
On the technique in general: In ATP-based viability assays light output follows the ATP content of the culture.

In assay [3] the target is BCL-2 (Homo sapiens, UniProt P10415). The assay is described as follows: BCL-binding assay (AlphaLISA competition, BIM peptide). Conditions: 6xHis BCL-2 with biotinylated BIM peptide, 24 hr incubation. On the procedure: as §1
Assay [4] has as its target T1, BCL-w (Homo sapiens, UniProt Q92843).
T1 sequence (Q92843 1-193): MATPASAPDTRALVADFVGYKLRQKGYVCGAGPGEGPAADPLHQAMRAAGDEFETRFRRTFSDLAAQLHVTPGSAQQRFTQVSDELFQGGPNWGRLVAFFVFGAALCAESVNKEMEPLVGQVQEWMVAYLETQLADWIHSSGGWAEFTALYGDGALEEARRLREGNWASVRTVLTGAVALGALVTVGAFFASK
The assay is described as above. The settings on record: 6xHis BCL-w with biotinylated BIM peptide, 24 hr incubation. The protocol:
as §1

Bounds are passed on as bounds.

BCL-2, sequence (P10415 whole entry, species assumed): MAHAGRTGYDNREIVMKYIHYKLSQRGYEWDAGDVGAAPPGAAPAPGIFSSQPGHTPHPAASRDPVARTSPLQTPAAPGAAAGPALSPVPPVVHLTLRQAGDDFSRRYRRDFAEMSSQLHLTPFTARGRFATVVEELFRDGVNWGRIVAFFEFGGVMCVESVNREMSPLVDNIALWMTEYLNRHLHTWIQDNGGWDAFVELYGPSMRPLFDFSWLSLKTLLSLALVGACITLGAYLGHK
BCL-xL, sequence (Q07817 whole entry, species assumed): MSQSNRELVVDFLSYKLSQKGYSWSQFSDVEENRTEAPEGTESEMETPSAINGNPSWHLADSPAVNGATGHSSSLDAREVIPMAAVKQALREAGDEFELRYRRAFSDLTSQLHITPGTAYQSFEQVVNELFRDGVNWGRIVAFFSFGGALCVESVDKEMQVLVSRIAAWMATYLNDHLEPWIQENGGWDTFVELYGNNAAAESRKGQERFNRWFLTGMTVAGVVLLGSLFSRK

Broadly, the Kd is the concentration at which binding is half-saturated. Usually EC50 stands for the concentration at which the effect is half-maximal. Lower therefore signals greater potency. For `CC1(C)CCC(c2ccc(Cl)cc2)=C(CN2CCN(c3ccc(C(=O)NS(=O)(=O)c4ccc(N[C@H](CCN5CCN(CCP(=O)(OCOC(=O)C(C)(C)C)OCOC(=O)C(C)(C)C)CC5)CSc5ccccc5)c(S(=O)(=O)C(F)(F)F)c4)cc3)CC2)C1` [Compound 43, (R)-(((2-(4-(3-((4-(N-(4-(4-((4′-chloro-4,4-dimethyl-3,4,5,6-tetrahydro-[1,1′-biphenyl]-2-yl)methyl)piperazin-1-yl)benzoyl)sulfamoyl)-2-((trifluoromethyl)sulfonyl)phenyl)amino)-4-(phenylthio)butyl)piperazin-1-yl)ethyl)phosphoryl)bis(oxy))bis(methylene) bis(2,2-dimethylpropanoate)], the results for the Kd in assay [1], in assay [3] and in assay [4] were 1 to 10 nM, less than 1 nM and 10 to 50 nM, respectively. This compound also yielded a concentration giving a half-maximal response (EC50) in assay [2] greater than 10000 nM.

With `CCOP(=O)(CN1CCN(CC[C@H](C[S+]([O-])c2ccccc2)Nc2ccc(S(=O)(=O)NC(=O)c3ccc(N4CCN(CC5=C(c6ccc(Cl)cc6)CCC(C)(C)C5)CC4)cc3)cc2S(=O)(=O)C(F)(F)F)CC1)OCC` (stereo partly drawn) [Compound 44, Diethyl ((4-((3R)-3-((4-(N-(4-(4-((4′-chloro-4,4-dimethyl-3,4,5,6-tetrahydro-[1,1′-biphenyl]-2-yl)methyl)piperazin-1-yl)benzoyl)sulfamoyl)-2-((trifluoromethyl)sulfonyl)phenyl)amino)-4-(phenylsulfinyl)butyl)piperazin-1-yl)methyl)phosphonate], the dissociation constant Kd in assay [1] was less than 1 nM; in assay [3], less than 1 nM; in assay [4] it was 10 to 50 nM. The same compound had a 50% effective concentration (EC50) in assay [2] of 1000 to 10000 nM. Further, the “SI (ratio of EC50 of non-senescent cells to EC50 of senescent cells)” value in assay [2] is “B (between 2 and 10)”.

Take `CC1(C)CCC(c2ccc(Cl)cc2)=C(CN2CCN(c3ccc(C(=O)NS(=O)(=O)c4ccc(N[C@H](CCN5CCN(CCP(=O)(O)OCOC(=O)C(C)(C)C)CC5)CSc5ccccc5)c(S(=O)(=O)C(F)(F)F)c4)cc3)CC2)C1` [Compound 45, (((2-(4-((R)-3-((4-(N-(4-(4-((4′-chloro-4,4-dimethyl-3,4,5,6-tetrahydro-[1,1′-biphenyl]-2-yl)methyl)piperazin-1-yl)benzoyl)sulfamoyl)-2-((trifluoromethyl)sulfonyl)phenyl)amino)-4-(phenylthio)butyl)piperazin-1-yl)ethyl)(hydroxy)phosphoryl)oxy)methyl pivalate]: the results for the Kd in assay [1], in assay [3] and in assay [4] were less than 1 nM, less than 1 nM and 1 to 10 nM, respectively. The compound also displayed an EC50 in assay [2] greater than 10000 nM.

With `CC1(C)CCC(c2ccc(Cl)cc2)=C(CN2CCN(c3ccc(C(=O)NS(=O)(=O)c4ccc(N[C@H](CCN5CCC(CP(=O)(OCOC(=O)C(C)(C)C)OCOC(=O)C(C)(C)C)CC5)CSc5ccccc5)c(S(=O)(=O)C(F)(F)F)c4)cc3)CC2)C1` [Compound 46], the dissociation constant Kd in assay [1] is 1 to 10 nM; in assay [3] it was 1 to 10 nM; in assay [4] it was greater than 50 nM. In addition, the EC50 in assay [2] is greater than 10000 nM.

On to `CC1(C)CCC(c2ccc(Cl)cc2)=C(CN2CCN(c3ccc(C(=O)NS(=O)(=O)c4ccc(N[C@H](CCN5CCC(CP(=O)(O)O)CC5)CSc5ccccc5)c(S(=O)(=O)C(F)(F)F)c4)cc3)CC2)C1` [Compound 47], for which the Kd is less than 1 nM in assay [1], less than 1 nM in assay [3] and 1 to 10 nM in assay [4]. In assay [2], this compound gave an EC50 greater than 10000 nM.

With `CCOP(=O)(CC1CCN(CC[C@H](CSc2ccccc2)Nc2ccc(S(=O)(=O)NC(=O)c3ccc(N4CCN(CC5=C(c6ccc(Cl)cc6)CCC(C)(C)C5)CC4)cc3)cc2S(=O)(=O)C(F)(F)F)CC1)OCOC(=O)C(C)(C)C` (stereo partly drawn) [Compound 48, (((1-((R)-3-((4-(N-(4-(4-((4′-chloro-4,4-dimethyl-3,4,5,6-tetrahydro-[1,1′-biphenyl]-2-yl)methyl)piperazin-1-yl)benzoyl)sulfamoyl)-2-((trifluoromethyl)sulfonyl)phenyl)amino)-4-(phenylthio)butyl)piperidin-4-yl)methyl)(ethoxy)phosphoryl)oxy)methyl pivalate], the Kd in assay [1] was less than 1 nM; in assay [3], less than 1 nM; in assay [4], 1 to 10 nM. Moreover, in assay [2], the EC50 is less than 1000 nM. Further, the “SI (ratio of EC50 of non-senescent cells to EC50 of senescent cells)” value in assay [2] is listed as “A (10 or above)”.

Consider `CCOP(=O)(CN1CCN(CC[C@H](CSc2ccccc2)Nc2ccc(S(=O)(=O)NC(=O)c3ccc(N4CCN(Cc5ccccc5-c5ccc(Cl)cc5)CC4)cc3)cc2S(=O)(=O)C(F)(F)F)CC1)OCC` [Compound 51, Diethyl (R)-((4-(3-((4-(N-(4-(4-((4′-chloro-[1,1′-biphenyl]-2-yl)methyl)piperazin-1-yl)benzoyl)sulfamoyl)-2-((trifluoromethyl)sulfonyl)phenyl)amino)-4-(phenylthio)butyl)piperazin-1-yl)methyl)phosphonate], for which the Kd was less than 1 nM in assay [1], less than 1 nM in assay [3] and 1 to 10 nM in assay [4]. In assay [2], this compound registered an EC50 of 1000 to 10000 nM. Besides, in assay [2], the “SI (ratio of EC50 of non-senescent cells to EC50 of senescent cells)” value is “B (between 2 and 10)”.

For the compound `CCOP(=O)(O)CN1CCN(CC[C@H](CSc2ccccc2)Nc2ccc(S(=O)(=O)NC(=O)c3ccc(N4CCN(Cc5ccccc5-c5ccc(Cl)cc5)CC4)cc3)cc2S(=O)(=O)C(F)(F)F)CC1` [Compound 53, Ethyl hydrogen ((4-((R)-3-((4-(N-(4-(4-((4′-chloro-[1,1′-biphenyl]-2-yl)methyl)piperazin-1-yl)benzoyl)sulfamoyl)-2-((trifluoromethyl)sulfonyl)phenyl)amino)-4-(phenylthio)butyl)piperazin-1-yl)methyl)phosphonate], the dissociation constant Kd in assay [1], in assay [3] and in assay [4] was less than 1 nM throughout. In assay [2], this compound gave an EC50 greater than 10000 nM.

Regarding `CCOP(=O)(CN1CCN(CC[C@H](CSc2ccccc2)Nc2ccc(S(=O)(=O)NC(=O)c3ccc(N4CCN(Cc5ccccc5-c5ccc(Cl)cc5)CC4)cc3)cc2S(=O)(=O)C(F)(F)F)CC1)OCOC(=O)C(C)(C)C` (stereo partly drawn) [Compound 54, (((4-((R)-3-((4-(N-(4-(4-((4′-chloro-[1,1′-biphenyl]-2-yl)methyl)piperazin-1-yl)benzoyl)sulfamoyl)-2-((trifluoromethyl)sulfonyl)phenyl)amino)-4-(phenylthio)butyl)piperazin-1-yl)methyl)(ethoxy)phosphoryl)oxy)methyl pivalate], the figures for the dissociation constant (Kd) in assay [1], in assay [3] and in assay [4] were less than 1 nM, less than 1 nM and 1 to 10 nM, respectively. The same compound had a concentration for a half-maximal effect (EC50) in assay [2] of 1000 to 10000 nM. Further, the “SI (ratio of EC50 of non-senescent cells to EC50 of senescent cells)” value in assay [2] was “B (between 2 and 10)”.

In the case of `CCOP(=O)(CN1CCN(CC[C@H](CSc2ccccc2)Nc2ccc(S(=O)(=O)NC(=O)c3ccc(N4CCN(Cc5ccccc5-c5ccc(Cl)cc5)CC4)cc3)cc2S(=O)(=O)C(F)(F)F)CC1)OCOC(=O)OC(C)C` (stereo partly drawn) [Compound 56, (((4-((R)-3-((4-(N-(4-(4-((4′-chloro-[1,1′-biphenyl]-2-yl)methyl)piperazin-1-yl)benzoyl)sulfamoyl)-2-((trifluoromethyl)sulfonyl)phenyl)amino)-4-(phenylthio)butyl)piperazin-1-yl)methyl)(ethoxy)phosphoryl)oxy)methyl isopropyl carbonate], the Kd in assay [1] is less than 1 nM; in assay [3] it was less than 1 nM; in assay [4], 1 to 10 nM. In assay [2], this compound had an EC50 greater than 10000 nM.
